Reference: a melting point compilation (Tetko et al.; mined from patent text by program, amines drawn as free bases though some values may be those of a salt)

SMILES | melting point [°C]
Cc1cc(OCC(=O)OC(C)C)ccc1NC(=O)NC(=O)c1ccc(C#N)cc1 | 233 to 234
O=C1Nc2cc(Cl)ccc2Cn2cccc21 | 177 to 179
CC(C)(C)c1ccc(/C=C/C(=O)Nc2ccc3ocnc3c2)cc1 | 177
CN1CCN(C(=O)c2ccc3c([N+](=O)[O-])c(O)c(O)cc3c2)CC1 | > 360
CN(C)c1ccc(-c2[nH]nc3c2C(=O)c2c(NC(=O)CN4CCC(O)CC4)cccc2-3)cc1 | 267
CC1(CSC#N)SC2C(NC(=O)Cc3ccccc3)C(=O)N2C1C(=O)OCC(Cl)(Cl)Cl (stereo not drawn) | 133 to 135
CNC(=O)c1ccc(NC(=O)Oc2ccccc2)cc1 | 190 to 192
CCC(=O)C1=C(O)CC(c2c(C)cc(C)cc2C)CC1=O (stereo not drawn) | 86 to 88
CCC12CCC3C4CCC(=O)C=C4CCC3C1CCC2C(C)=O (stereo not drawn) | 138 to 142
Nc1ncc(C2CCN(c3ccc(Cl)cc3)CC2)c(N)n1 | 254 to 255
CCCCCCCCCC(=O)c1ccc(O)c(C(=O)Nc2ccc([N+](=O)[O-])cc2)c1 | 142 to 143
NCC(CC(=O)O)C1CCC1 (stereo not drawn) | 115 to 117
CC(=O)Oc1ccc2c(c1)C[C@H]1CCCN(C(C)=O)[C@H]1C2 (relative stereo) | 108 to 113
O=C(OC1CCCCC1)C1Oc2ccccc2Cc2ccccc2O1 | 120 to 125
Cc1cc(C)cc(C#N)c1 | 51 to 52
Cc1ccc(NC(=O)N[C@]2(C3CCCCC3)N=Cc3ccccc3N(C)C2=O)cc1Nc1nnn[nH]1 | 190 to 193
Cc1cc(=O)c2cc(NC(=O)C(=O)O)ccc2s1 | 238 to 240
CC1CC(=O)NN=C1c1ccc2c(c1)N(C)C(=O)C(C)O2 (stereo not drawn) | 184 to 185
O=C(NCCc1ccc(O)c(O)c1)C12CC3CC(CC(C3)C1)C2 | 198 to 200
COc1cc(NC(NC(C)C(C)(C)C)=C(C#N)S(=O)(=O)c2ccc(Cl)cc2)cc(OC)c1 (stereo not drawn) | 178 to 179
COc1cc(-n2cccn2)ccc1-n1cc(OC)c(=O)c(C(C)=O)n1 | 193 to 196
CCCC(c1ccc(C)cc1)n1cncc1C(=O)OC (stereo not drawn) | 141 to 143
CC1(C)CCC(C)(C)c2cc(CC#Cc3ccc(C(=O)O)c(O)c3)c(O)cc21 | 216 to 217

More lines, now with the values ahead:

melting point [°C] | SMILES
349 to 352 | O=C1c2ccccc2C(=O)N1CCn1nc(O)c2[nH]c3cc(Cl)ccc3c(=O)c2c1=O
230 to 232 | O=c1c2ncn3c2n(c(=O)n1Cc1ccc([N+](=O)[O-])cc1)CC=C3c1cccc(C(F)(F)F)c1
204 to 207 | Clc1ccc(Nc2cncc(-n3ncc4ccccc43)n2)cc1
142 to 143 | Clc1cc(CCc2ccccn2)c2oc(-c3nccc4ccccc34)nc2c1
213 to 215 | Cc1ncc(CNC(=O)c2sc(N3CCN(Cc4ccc(F)cc4)C3=O)nc2C)s1
149 to 150 | Cc1nc[nH]c1CSCCNC(=N)NS(=O)(=O)c1ccccc1
108 to 109 | CC(C)[C@H]1OC[C@H](Nc2nnc(Cc3ccc(O)nc3)c3ccccc23)CO1
199 to 201 | COc1c(Cc2ccccc2)cc(C(N)=O)c2ccccc12
243 to 245 | CN(C)C=Nc1n[nH]c2ncnc(Nc3cccc(Cl)c3)c12
286 | O=C(O)CCn1c2ccc(O)cc2c2c3c(c(-c4ccccc4Cl)cc21)C(=O)NC3=O
144 to 146 | CC(=O)NC[C@H]1CN(c2ccc(N3CCC(Cc4noc(-c5ccccc5)n4)CC3)c(F)c2)C(=O)O1
48 to 59 | c1ccc(CC[C@H]2CN(C3=Nc4ccccc4Sc4ccccc43)CCN2)cc1
197 to 198 | CNS(=O)(=O)c1ccccc1Nc1nc(Nc2ccc3c(c2)CNC(=O)CCN3)ncc1Cl
132 to 134 | CCOC(=O)Cc1c([N+](=O)[O-])cc([N+](=O)[O-])c2ccccc12
159 to 162 | Cc1ccccc1NC(=O)Nc1ccc(-c2c(CCO)sc3ncnc(N)c23)cc1
122 to 124 | CCc1cc2c(c(CC)n1)CCC(=O)N2Cc1ccc(Oc2ccccc2CC(=O)O)cc1
114 to 117 | Cc1cc(-c2cccc(C(F)(F)F)c2)c2ncc(OCC(F)(F)F)nc2c1
201 to 202 | COc1c(NC(=O)c2cc3cccc(Oc4ccnc(NCCN5CCOCC5)n4)c3n2C)cc(C(C)(C)C)cc1NS(C)(=O)=O
173 to 175 | CN(C)c1c([N+](=O)[O-])cc(-c2nc(Cl)c(CC#N)n2Cc2ccccc2)cc1[N+](=O)[O-]
127 to 129 | Nc1ccc(Sc2ccccc2)cn1
189 to 190 | O=C(c1cccc2nc3n(c12)CCCN3c1ccc(Cl)cc1Cl)C1CC1
113 to 115 | O=C(C=Cc1ccc(Cl)cc1)C(Cc1ccccc1)c1ccccc1 (stereo not drawn)
155 to 156 | COc1ccc2c(c1)C(=O)N(CCN(C)CCN1C(=O)c3ccccc3C(C)(C)C1=O)C(=O)C2(C)C
235 | Clc1cccc(Nc2ncnc3[nH]nc(NCc4ccc(-c5cncs5)cc4)c23)c1
138 to 139 | CN(C)CCOc1cc2c(Nc3cccc(Br)c3)c(C#N)cnc2cn1
